Results from patent US9127044B2, “Cyclic depsipeptides” (NOVARTIS AG, priority 2007, dated 2015).
Where two headings read alike, the source gives them in different places. Where a SMILES comes first, the peptide text is derived from it. Bridges are numbered along the chain shown (N, C = ends). [ ]: non-standard residue; d: D form. The star is where a group is joined. ξ: configuration not given here. NMeY = CN[C@@H](Cc1ccc(O)cc1)C(=O)O; Butanoyl(2ξ-Me) = CCC(C)C(=O)*; Ile(3ξ) = CCC(C)[C@H](N)C(=O)O

How the values were obtained:
human kallikrein 7 = human kallikrein 7 (Homo sapiens, UniProt P49862); assay: Kallikrein-7 inhibitory activity in vitro (fluorescence-quenched substrate); assay type: biochemical
human kallikrein 7, sequence (P49862 30-253): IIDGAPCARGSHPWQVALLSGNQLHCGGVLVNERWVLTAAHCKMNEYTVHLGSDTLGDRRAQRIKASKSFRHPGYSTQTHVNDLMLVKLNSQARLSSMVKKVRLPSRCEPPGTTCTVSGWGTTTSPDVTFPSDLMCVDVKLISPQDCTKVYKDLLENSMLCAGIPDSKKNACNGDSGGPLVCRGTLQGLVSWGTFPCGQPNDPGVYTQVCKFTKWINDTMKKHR
Method: (§1) IC50 for human kallikrein can be measured using the fluorescence-quenched substrate Ac-Glu-Asp(EDANS)-Lys-Pro-Ale-Leu-Phe^Arg-Leu-Gly-Lys(DABCYL)-Glu-NH2 (where ^ indicates the scissile bond, identified by MS analysis) which can be purchased from Biosyntan (Berlin, Germany). Enzymatic reactions are conducted in 50 mM sodium citrate buffer at pH 5.6 containing 150 mM NaCl and 0.05% (w/v) CHAPS. For the determination of IC50 values the assay is performed at room temperature in 384-well plates. All final assay volumes are 30 μl. Test compounds are dissolved in 90% (v/v) DMSO/water and diluted in water (containing 0.05% (w/v) CHAPS) to 3-times the desired assay concentration. The 11 final compound concentrations are: 0.3 nM, 1 nM, 3 nM, 10 nM, 30 nM, 100 nM, 300 nM, 1 μM, 3 μM, 10 μM and 30 μM. For each assay, 10 μl water/CHAPS (±test compound) are added per well, followed by 10 μl protease solution (diluted with 1.5× assay buffer). The protease concentration in final assay solution is 0.2 nM (according to the enzyme concentrations determined by the Bradford method). After 1 hour of incubation at room temperature, the reaction is started by addition of 10 μl substrate solution (substrate dissolved in 1.5× assay buffer, final concentration is 2 μM). […] The IC50 value is calculated from the plot of percentage of inhibition vs. inhibitor concentration using non-linear regression analysis software (XLfit, Vers. 4.0; ID Business Solution Ltd., Guildford, Surrey, UK).
The fluorescence-quenched substrate Ac-Glu-Asp(EDANS)-Lys-Pro-Ale-Leu-Phe^Arg-Leu-Gly-Lys(DABCYL)-Glu-NH2 (where ^ indicates the scissile bond, identified by MS analysis) is purchased from Biosyntan (Berlin, Germany) and kept as a 5 mM stock solution in DMSO at −20° C. All other chemicals are of analytical grade.
Enzymatic reactions are conducted in 50 mM sodium citrate buffer at pH 5.6 containing 150 mM NaCl and 0.05% (w/v) CHAPS.
All protein and peptide containing solutions are handled in siliconized tubes (Life Systems Design, Merenschwand, Switzerland). The compound solutions as well as the enzyme and the substrate solutions are transferred to the 384-well plates (black Cliniplate; cat. no. 95040020 Labsystems Oy, Finland) by means of a CyBi-Well 96-channel pipettor (CyBio AG, Jena, Germany).
(§2) For fluorescence intensity (FI) measurements an Ultra Evolution reader (TECAN, Maennedorf, Switzerland) is used. The instrument is equipped with a combination of a 350 nm (20 nm bandwidth) and a 500 nm (25 nm bandwidth) bandpass filter for fluorescence excitation and emission acquisition, respectively. To increase the signal:background ratio, an appropriate dichroic mirror is employed. The optical filters and the dichroic mirror are purchased from TECAN. The fluorophores in each well are excited by three flashes per measurement.
as §1, with “For” for “IC50 for human kallikrein can be measured using the fluorescence-quenched substrate Ac-Glu-Asp(EDANS)-Lys-Pro-Ale-Leu-Phe^Arg-Leu-Gly-Lys(DABCYL)-Glu-NH2 (where ^ indicates the scissile bond, identified by MS analysis) which can be purchased from Biosyntan (Berlin, Germany). Enzymatic reactions are conducted in 50 mM sodium citrate buffer at pH 5.6 containing 150 mM NaCl and 0.05% (w/v) CHAPS. For”, “volumes were” for “volumes are”, “concentration was” for “concentration is”

[1] = target: T1, Human neutrophil elastase (Homo sapiens, UniProt P08246); assay: HNE inhibitory activity in vitro (fluorescence-quenched substrate); assay type: biochemical
T1 construct: purchased Elastin Products Company, Inc. (EPC, Owensville, USA) SE563
T1 sequence (P08246 30-267): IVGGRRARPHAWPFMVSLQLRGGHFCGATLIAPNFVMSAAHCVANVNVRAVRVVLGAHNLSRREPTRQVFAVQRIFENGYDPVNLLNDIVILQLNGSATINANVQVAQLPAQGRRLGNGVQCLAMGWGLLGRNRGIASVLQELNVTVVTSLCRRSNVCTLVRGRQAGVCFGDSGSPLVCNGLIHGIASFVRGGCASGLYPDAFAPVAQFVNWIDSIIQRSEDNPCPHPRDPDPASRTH
Method: Human neutrophil elastase (cat. no. SE563) is purchased from Elastin Products Company, Inc. (EPC, Owensville, USA). The dry powder (purity >95% stated by the supplier) was dissolved in 20 mM sodium acetate buffer, pH 5.0, 50% (v/v) glycerol, and frozen at −80° C. in aliquots.
The fluorescence-quenched substrate (DABCYL-Ser-Glu-Val^Asn-Leu-Asp-Ala-Glu-Phe-EDANS, where ^ indicates the scissile bond, identified by MS analysis) was purchased from Bachem AG (Bubendorf, Switzerland), and kept as a 5 mM stock solution in DMSO at −20° C. All other chemicals were of analytical grade.
Enzymatic reactions were conducted in 100 mM Tris/HCl buffer at pH 7.5, containing 500 mM NaCl, and 0.05% (w/v) CHAPS.
All protein and peptide containing solutions are handled in siliconized tubes (Life Systems Design, Merenschwand, Switzerland).
The compound solutions as well as the enzyme and the substrate solutions are transferred to the 384-well plates (black Cliniplate; cat. no. 95040020 Labsystems Oy, Finland) by means of a CyBi-Well 96-channel pipettor (CyBio AG, Jena, Germany).
as §2

[2] = Table 11, read-out: hKallikrein7 IC 50
[3] = Table 11, read-out: human neutrophile elastase IC 50

IC50 (human kallikrein 7; [2])	IC50 [1, 3]	IC50 (human kallikrein 7; read-out: IC50 for human kallikrein 7)	Structure (SMILES)	IC50 (human kallikrein 7; hKallikrein7 IC 50, Table 11)	IC50 [1]
–	–	–	CCC(C)[C@@H]1NC(=O)[C@H](Cc2ccc(O)cc2)N(C)C(=O)[C@@H](C(C)CC)N2C=CC[C@H](NC(=O)[C@H](CC(C)C)NC(=O)[C@@H](NC(=O)[C@H](CCC(N)=O)NC(=O)C(C)C)[C@@H](C)OC1=O)C2=O (some centres unmarked) [formula V]	6 nM	60 nM
4 nM	1.5 nM	–	CCCOC1CCC2NC(=O)C(CC(C)C)NC(=O)C(NC(=O)C(CCC(N)=O)NC(=O)C(C)C)C(C)OC(=O)C(C(C)CC)NC(=O)C(Cc3ccc(OCC=C(C)C)cc3)N(C)C(=O)C(C(C)CC)N1C2=O (centres unmarked) [example 38]	–	–
4 nM	5 nM	–	CCCOC1CCC2NC(=O)C(CC(C)C)NC(=O)C(NC(=O)C(CCC(N)=O)NC(=O)C(C)C)C(C)OC(=O)C(C(C)CC)NC(=O)C(Cc3ccc(OCC(=O)OC(C)(C)C)cc3)N(C)C(=O)C(C(C)CC)N1C2=O (centres unmarked) [example 34]	–	–
8.5 nM	3.5 nM	–	CCCOC1CCC2NC(=O)C(CC(C)C)NC(=O)C(NC(=O)C(CCC(N)=O)NC(=O)C(C)C)C(C)OC(=O)C(C(C)CC)NC(=O)C(Cc3ccc(OCC=CC(F)(F)F)cc3)N(C)C(=O)C(C(C)CC)N1C2=O (centres unmarked) [example 36]	–	–
–	–	–	CCCCCCCCOC1CCC2NC(=O)C(CC(C)C)NC(=O)C(NC(=O)C(CCC(N)=O)NC(=O)C(C)C)C(C)OC(=O)C(C(C)CC)NC(=O)C(Cc3ccc(O)cc3)N(C)C(=O)C(C(C)CC)N1C2=O (centres unmarked) [example 6]	95 nM	55 nM
2 nM	1 nM	–	C#CCOc1ccc(CC2C(=O)NC(C(C)CC)C(=O)OC(C)C(NC(=O)C(CCC(N)=O)NC(=O)C(C)C)C(=O)NC(CC(C)C)C(=O)NC3CCC(OCCC)N(C3=O)C(C(C)CC)C(=O)N2C)cc1 (centres unmarked) [example 41]	–	–
6.5 nM	2.5 nM	–	C=CCOc1ccc(CC2C(=O)NC(C(C)CC)C(=O)OC(C)C(NC(=O)C(CCC(N)=O)NC(=O)C(C)C)C(=O)NC(CC(C)C)C(=O)NC3CCC(OCCC)N(C3=O)C(C(C)CC)C(=O)N2C)cc1 (centres unmarked) [example 40]	–	–
–	–	–	CCC(C)C(=O)N[C@@H](CCC(N)=O)C(=O)N[C@@H]1C(=O)N[C@@H](CC(C)C)C(=O)N2CCC[C@H]2C(=O)N[C@@H](C(C)CC)C(=O)N(C)[C@@H](Cc2ccc(O)cc2)C(=O)N[C@@H](C(C)CC)C(=O)O[C@@H]1C (some centres unmarked) [formula XIV] ({Butanoyl(2ξ-Me)}-QTLP[Ile(3ξ)][NMeY][Ile(3ξ)]; ester 2-C)	200 nM	2700 nM
–	–	–	CCC(C)[C@@H]1NC(=O)[C@H](Cc2ccc(O)cc2)N(C)C(=O)[C@H](Cc2ccccc2)N2C(=O)C(CC[C@@H]2O)NC(=O)[C@H](CC(C)C)NC(=O)[C@@H](NC(=O)[C@H](CCCNC(N)=O)NC(=O)C(C)C)[C@@H](C)OC1=O (some centres unmarked) [formula XV]	4 nM	80 nM
–	–	–	CCC(C)C1NC(=O)C(Cc2ccc(O)cc2)N(C)C(=O)C(C(C)CC)N2C(=O)C(CCC2OCC(F)(F)F)NC(=O)C(CC(C)C)NC(=O)C(NC(=O)C(CCC(N)=O)NC(=O)C(C)C)C(C)OC1=O (centres unmarked) [example 7]	50 nM	6 nM
–	–	–	CCC(C)C1NC(=O)C(Cc2ccc(O)cc2)N(C)C(=O)C(C(C)CC)N2C(=O)C(CCC2OC)NC(=O)C(CC(C)C)NC(=O)C(NC(=O)C(CCC(=O)OC)NC(=O)C(C)C)C(C)OC1=O (centres unmarked) [example 20]	1.5 nM	8 nM
4.5 nM	35 nM	5 nM	CCC(C)[C@@H]1NC(=O)[C@H](Cc2ccc(OCC(=O)OC(C)(C)C)cc2)N(C)C(=O)[C@H](C(C)CC)N2CCCC(NC(=O)[C@H](CC(C)C)NC(=O)[C@@H](NC(=O)[C@H](CCC(N)=O)NC(=O)C(C)C)[C@@H](C)OC1=O)C2=O (some centres unmarked) [example 33]	–	–
6 nM	40 nM	–	CCC(C)C1NC(=O)C(Cc2ccc(O)cc2)N(C)C(=O)C(C(C)CC)N2CCCC(NC(=O)C(CC(C)C)NC(=O)C(NC(=O)C(CCC#N)NC(=O)C(C)C)C(C)OC1=O)C2=O (centres unmarked) [example 22]	–	–
7 nM	4 nM	–	CCCOC1CCC2NC(=O)C(CC(C)C)NC(=O)C(NC(=O)C(CCC#N)NC(=O)C(C)C)C(C)OC(=O)C(C(C)CC)NC(=O)C(Cc3ccc(O)cc3)N(C)C(=O)C(C(C)CC)N1C2=O (centres unmarked) [example 24]	–	–
–	–	–	CCC(C)[C@@H]1NC(=O)[C@H](Cc2ccc(O)cc2)N(C)C(=O)[C@H](C(C)CC)N2C(=O)C(CC[C@@H]2O)NC(=O)[C@H](CC(C)C)NC(=O)[C@@H](NC(=O)[C@H](CCC(N)=O)NC(C)=O)[C@@H](C)OC1=O (some centres unmarked) [formula XII]	4 nM	50 nM
100 nM	30 nM	–	CCCOC1CCC2NC(=O)C(CC(C)C)NC(=O)C(NC(=O)C(CCC(N)=O)NC(=O)C(C)C)C(C)OC(=O)C(C(C)CC)NC(=O)C(Cc3ccc(OCC=Cc4ccccc4)cc3)N(C)C(=O)C(C(C)CC)N1C2=O (centres unmarked) [example 32]	–	–
8.5 nM	3.5 nM	–	CCCOC1CCC2NC(=O)C(CC(C)C)NC(=O)C(NC(=O)C(CCC(N)=O)NC(=O)C(C)C)C(C)OC(=O)C(C(C)CC)NC(=O)C(Cc3ccc(OCc4ccccc4)cc3)N(C)C(=O)C(C(C)CC)N1C2=O (centres unmarked) [example 39]	–	–
200 nM	300 nM	–	CCCCCCCCOC(=O)Oc1ccc(C[C@H]2C(=O)N[C@@H](C(C)CC)C(=O)O[C@H](C)[C@H](NC(=O)[C@H](CCC(N)=O)NC(=O)C(C)C)C(=O)N[C@@H](CC(C)C)C(=O)NC3CCCN(C3=O)[C@@H](C(C)CC)C(=O)N2C)cc1 (some centres unmarked) [example 31]	–	–
–	–	–	CCC(C)C1NC(=O)C(Cc2ccc(O)cc2)N(C)C(=O)C(C(C)CC)N2C(=O)C(CCC2OCCOC)NC(=O)C(CC(C)C)NC(=O)C(NC(=O)C(CCC(N)=O)NC(=O)C(C)C)C(C)OC1=O (centres unmarked) [example 13]	6 nM	4 nM
–	–	–	C#CCOC1CCC2NC(=O)C(CC(C)C)NC(=O)C(NC(=O)C(CCC(N)=O)NC(=O)C(C)C)C(C)OC(=O)C(C(C)CC)NC(=O)C(Cc3ccc(O)cc3)N(C)C(=O)C(C(C)CC)N1C2=O (centres unmarked) [example 18]	5 nM	2.5 nM
